Laboratory results taken from patent US20090012263A1, “Process for Production of (1,3-Disubstituted Indolyl)-Urea Derivatives, Intermediates Therefor, and Process for Production of the Intermediates” (KOWA COMPANY, LTD., priority 2004, published 2009).

Experiment: storage stability of the intermediate
Format: physicochemical

Row | Compound | can be stored (storage stability) (room temperature under light shielding, crystalline) | stability of storage (under refrigeration and light shielding, amorphous powder)
1 | O=C(Nc1ccc2c(c1)c(CN1CCCC1)cn2Cc1c(Cl)cccc1Cl)Oc1ccccc1 [Example 2, 5-phenyloxycarbonylamino-3-(1-pyrrolidinylmethyl)-N-[1-(2,6-dichlorophenyl)methyl]-1H-indole] | over 2 years | 
2 | O=C(Nc1ccc2c(CN3CCCC3)cn(Cc3c(Cl)cccc3Cl)c2c1)Oc1ccccc1 [Example 4, 6-phenyloxycarbonylamino-3-(1-pyrrolidinylmethyl)-N-[1-(2,6-dichlorophenyl)methyl]-1H-indole] |  | over 3 months
